Test results reported in paper PMC5107916, “Quantitative fluorescence spectroscopy and flow cytometry analyses of cell-penetrating peptides internalization pathways: optimization, pitfalls, comparison with mass spectrometry quantification” (Scientific Reports, 2016).
Like-named read-outs stand apart in the source and are kept apart here.

What was measured:
[1] = tested on: GAG-deficient CHO-pgsA745 cells (GAG^deficient); details: MALDI-TOF MS (sinapinic acid matrix), 2H-peptide internal standard, 10^6 adherent cells, 7.5 μM extracellular peptide, 1 h, trypsin digestion
Description: (§1) To quantify CPP internalization in cells, we kept the conditions of sample preparation for the measurement of the quantity of internalized and cell-associated (membrane-bound plus internalized) fluorescent peptides previously optimized for a MALDI-TOF MS based protocol, and illustrated in Fig. 3. Briefly, one million adherent cells were incubated with CF-CPP for the indicated time and temperature. […] Cells were then washed, lysed, sonicated and the lysate was cleared by centrifugation. The amount of internalized peptide was quantified by direct measurement of the fluorescence remaining in the supernatant. To evaluate the quantity of cell-associated (membrane-bound and internalized) peptide, the proteolytic step was omitted. A calibration curve was fitted from the fluorescence intensity of definite amounts of the same peptide in cell lysates ran in parallel for each experiment (Fig. 3). Comparison of the fluorescence intensity between the samples and the calibration curve permitted the absolute quantification of internalized and cell-associated peptides.
(§2) Wild type Chinese Hamster Ovary CHO-K1 cells (WT), xylose-transferase- or GAG-deficient CHO-pgsA745 cells (GAG^deficient) and sialic acid deficient CHO-lec2 cells (SA^deficient) (ATCC, LGC Standards S.a.r.l. - France) were cultured in F12 growth medium (DMEM-F12) supplemented with 10% fetal calf serum (FCS), penicillin (100,000 IU/L), streptomycin (100,000 IU/L), and amphotericin B (1 mg/L) in a humidified atmosphere containing 5% CO2 at 37 °C.
(§3) The protocol has been fully described elsewhere by Burlina et al.[14][16]. Briefly, one million adherent cells were incubated one hour with biotin-labeled peptides (^1H-CPP). After washing with HBSS, 0.05% trypsin/EDTA (37 °C, 5 min) or 0.05% pronase (4 °C, 10 min) digestion, cells were lysed in a solution containing a relevant quantity of the deuterated form (^2H-CPP) of the same peptide sequence, which is used as internal standard to quantify the internalized amount of ^1H-CPP. MALDI-TOF MS analyses were done using cyano-4-hydroxy-cinnamic acid (CHCA), for Biotin-Penetratin or sinapinic acid for Biotin-(CF)Penetratin. Unless indicated, experiments were performed in triplicates and repeated at least three times independently.

[2] = tested on: Wild type Chinese Hamster Ovary CHO-K1 cells (WT); details: 7.5 μM extracellular peptide
Description: as §1, §2, §3

[3] = tested on: Wild type Chinese Hamster Ovary CHO-K1 cells (WT); assay: Fluorometry quantification of internalized CF-peptide in cell lysates; type: cell-based; details: for 4 °C - INTERNALIZED, WT (FLUOROMETRY) / 37 °C - INTERNALIZED, WT (FLUOROMETRY): fluorometry of lysate (50 mM Tris pH 7.4, 1 M NaCl, 1% NP40, sonicated), ex 494 nm, calibration curve, 10^6 cells, 7.5 μM peptide in DMEM, 60 min, mean ± spread, n in cell; for 4 °C - INTERNALIZED, WT (FLUOROMETRY): 4 °C (translocation only), 0.05% pronase digestion; for 37 °C - INTERNALIZED, WT (FLUOROMETRY): 0.05% trypsin/EDTA digestion, μM from 1 pL cell volume
Description: as §1
(§4) Figure 4 Quantification by fluorometry of (A) internalized and (B) membrane-bound CF-Penetratin in WT, GAG^deficient and SA^deficient CHO cells. One million cells were incubated with 2.5 or 7.5 μM CF-Penetratin in DMEM for 60 min at 37 °C or 4 °C. To measure the total cell-associated peptide (membrane-bound plus internalized), cells were washed and lysed in a buffer (50 mM Tris pH 7.4, 1 M NaCl, 1% Nonidet P40), sonicated and centrifuged 10 min at 16,000 g. To obtain the internalized peptide, the membrane-bound peptide was digested with 0.05% trypsin/EDTA (37 °C) or pronase (4 °C). After washes, cells were lysed, sonicated and centrifuged. To calculate the amount of internalized and membrane bound cell peptide, we compare the fluorescence intensity (excitation at 494 nm) to the calibration curve obtained from parallel experiments (see Fig. 3). Error bars correspond to standard errors obtained from n = 4 independent experiments for each experimental condition. Intracellular concentrations (μM) were calculated from the mean volume of one CHO cell (assimilated to a sphere of 10–15 μm diameter) being 1 pL: picomoles in 1 μL (10^6 cells) thus correspond to μM concentrations.
as §2
(§5) One million cells were incubated one hour at 37 °C or 4 °C with CF-Penetratin (2.5 μM and 7.5 μM), Biotin-(CF)Penetratin, CF-Arg9 and CF-TAT (7.5 μM) in 1 mL DMEM.
(§6) To access internalized peptides, after washing cells with HBSS, (0.05%) 500 μL trypsin/EDTA (37 °C, 5 min) or (0.05%) pronase (4 °C, 10 min) was added for 5 min to hydrolyze the remaining extracellular and the membrane-bound peptide and to detach cells. After addition of enzyme inhibitors (100 μL (one Complete Mini tablet, Roche, in 2.5 mL PBS) mixed with 100 μL bovine serum albumin (1 mg/mL), cells were transferred into a microtube, centrifuged, washed with 1 mL 50 mM Tris buffer pH 7.4, 0.1% BSA, and lysed in 200 μL 50 mM Tris pH 7.4, 1 M NaCl, 1% NP40. The samples were then sonicated for 30 min and centrifuged 10 min at 16,000 g.
(§7) To obtain the value of the total cell-associated peptide (internalized and membrane-bound species), after washing cells with HBSS, cells were directly lysed in 50 mM Tris pH 7.4, 1 M NaCl, 1% NP40. The samples were then sonicated for 30 min and centrifuged 10 min at 16,000 g.

[4] = tested on: GAG-deficient CHO-pgsA745 cells (GAG^deficient); details: fluorometry of lysate (50 mM Tris pH 7.4, 1 M NaCl, 1% NP40, sonicated), ex 494 nm, calibration curve, 10^6 cells, 7.5 μM peptide in DMEM, 60 min, mean ± spread, n in cell; for 37 °C - INTERNALIZED, GAG^deficient (FLUOROMETRY): trypsin digestion; for 4 °C - INTERNALIZED, GAG^deficient (FLUOROMETRY): pronase digestion
Description: as §1, §4, §2, §5, §6, §7

[5] = tested on: sialic acid deficient CHO-lec2 cells (SA^deficient); details: fluorometry of lysate (50 mM Tris pH 7.4, 1 M NaCl, 1% NP40, sonicated), ex 494 nm, calibration curve, 10^6 cells, 7.5 μM peptide in DMEM, 60 min, mean ± spread, n in cell; for 37 °C - INTERNALIZED, SA^deficient (FLUOROMETRY): trypsin digestion; for 4 °C - INTERNALIZED, SA^deficient (FLUOROMETRY): pronase digestion
Description: as §1, §4, §2, §5, §6, §7

CHO cells [6] = assay: Cytotoxicity, Cell Counting Kit 8 (CCK-8); type: cell-based, Chinese Hamster; details: 2 × 10^4 CHO cells/well, peptide 1; 5; 10 and 20 μM, 60 min, then 3 h 10% CCK-8, absorbance 450 nm
Description: Cytotoxicity was determined with the Cell Counting Kit 8 (CCK-8) from Dojindo Molecular Technologies. This colorimetric assay allows to measure the viability of cells. 96-well plates were inoculated with 100 μL/well of a suspension of CHO cells (2.10^4 cells/well). […] After washing, the cells were incubated with 100 μL of 10% CCK-8 in DMEM for 3 hours and the absorbance was measured at 450 nm with a microplate reader (Polarstar Optima). Controls corresponded to untreated cells (negative control, 100% viability) and cells treated with 0.2% of Triton X-100 (positive control, 0% viability). Supplementary Figure S1. […] A 96-well plate was inoculated with 100 µL/well of a suspension of CHO cells (2 × 10^4 cells/well). […] Controls corresponded to untreated cells (negative control, 100% viability) and cells treated with 0.2% of Triton X-100 (positive control, 0% viability).

[7] = tested on: sialic acid deficient CHO-lec2 cells (SA^deficient); details: MALDI-TOF MS of lysate, 2H-peptide internal standard, 10^6 adherent cells, 7.5 μM extracellular peptide, 1 h, ref [19], cited from earlier work
[8] = tested on: Wild type Chinese Hamster Ovary CHO-K1 cells (WT); details: MALDI-TOF MS of lysate, 2H-peptide internal standard, 10^6 adherent cells, 7.5 μM extracellular peptide, 1 h, ref [19], cited from earlier work
[9] = tested on: GAG-deficient CHO-pgsA745 cells (GAG^deficient); details: MALDI-TOF MS of lysate, 2H-peptide internal standard, 10^6 adherent cells, 7.5 μM extracellular peptide, 1 h, ref [19], cited from earlier work
CHO cells [10] = tested on: CHO cells
Description: We examined the impact of the concentration of Trypan Blue on cell-associated fluorescence compared to control conditions in the absence of Trypan Blue. Cells were incubated with CF-Penetratin. After washings, different concentrations of Trypan Blue were added before cytometry analysis. […] We next examined the quenching ability of Trypan Blue on increasing CF-Penetratin concentrations.
Figure 7 Quenching assays of membrane-bound fluorescence for flow cytometry internalization quantification. (A) Fluorescence quenching according to Trypan Blue quantity (% in g for 100 mL). […] After washing with cold PBS, cells were analyzed in the absence or the presence of Trypan Blue. Lower panel: Stern-Volmer plot. (B) Quenching of membrane fluorescence was assayed with various experimental conditions: 0.2% Trypan Blue, 0.01% trypsin (5 min, 37 °C), 0.5 mg/mL heparin (3 times 5 min, 37 °C). 20,000 events were recorded for each experimental condition. Data were normalized to 100% fluorescence in the absence of Trypan Blue.
Cells were dissociated with 0.5 mM EDTA in PBS (5 min at 37 °C), centrifuged at 800 g, and suspended in DMEM culture medium. […] To optimize fluorescence quenching of the membrane-bound fluorescein, the cell suspension was treated with different concentrations of Trypan Blue. […] 20,000 events were recorded for every experimental conditions.

[11] = 37 °C, trypsin digestion, μM from 1 pL cell volume

Biotin-GGGG(εCF)KRQIKIWFQNRRMKWKK-NH2 [Biotin-(CF)PEN, doubly labeled fluorescent and biotinylated Penetratin analogue]
37 °C - INTERNALIZED, GAG^deficient (MALDI-TOF MS) [1]: Not detectable | 4 °C - INTERNALIZED, WT (MALDI-TOF MS) ([2]; MALDI-TOF MS (sinapinic acid matrix), 2H-peptide internal standard, 10^6 adherent cells, 1 h, 4 °C, pronase digestion): Not detectable | 37 °C - INTERNALIZED, WT (MALDI-TOF MS) ([2]; MALDI-TOF MS (sinapinic acid matrix), 2H-peptide internal standard, 10^6 adherent cells, 1 h, 37 °C, trypsin digestion, μM from 1 pL cell volume, mean ± spread, n in cell): 8.7 ± 1.1 (n = 19) μM | intracellular degradation of the internalized peptide, from mass spectra ([2]; MALDI-TOF MS of cell lysate, one-hour incubation, 37 °C): not quickly degraded | 4 °C - INTERNALIZED, WT (FLUOROMETRY) [3]: 1.5 ± 0.1 (n = 10) μM | 37 °C - INTERNALIZED, WT (FLUOROMETRY) [3]: 9.8 ±1.0 (n = 14) μM | 37 °C - INTERNALIZED, GAG^deficient (FLUOROMETRY) [4]: 1.1 ± 0.1 (n = 4) μM | 37 °C - INTERNALIZED, SA^deficient (FLUOROMETRY) [5]: 6.9 ± 1.8 (n = 3) μM | cytotoxicity (cell viability, CCK-8) (CHO cells [6]): none of the peptides used in this study was cytotoxic

Biotin-GGGGRQIKIWFQNRRMKWKK-NH2 [Biotin-PEN]
4 °C - INTERNALIZED, SA^deficient (MALDI-TOF MS) ([7]; 4 °C, pronase digestion): 1.0 ± 0.2 µM | 37 °C - INTERNALIZED, SA^deficient (MALDI-TOF MS) [7, 11]: 6.0 ± 1.0 µM | 4 °C - INTERNALIZED, WT (MALDI-TOF MS) ([8]; 4 °C (translocation only), 0.05% pronase digestion): 0.9 ± 0.2 µM | 37 °C - INTERNALIZED, WT (MALDI-TOF MS) ([8]; 37 °C, membrane-bound peptide digested with 0.05% trypsin/EDTA, μM from 1 pL cell volume): 5.0 ± 0.5 µM | 4 °C - INTERNALIZED, GAG^deficient (MALDI-TOF MS) ([9]; 4 °C, pronase digestion): 0.6 ± 0.1 µM | 37 °C - INTERNALIZED, GAG^deficient (MALDI-TOF MS) [9, 11]: 1.9 ± 0.2 µM

Carboxyfluorescein-Apa-RQIKIWFQNRRMKWKK-NH2 [CF-PEN]
4 °C - INTERNALIZED, WT (FLUOROMETRY) [3]: 2.4 ± 0.4 (n = 3) μM | 4 °C - INTERNALIZED, WT (FLUOROMETRY) ([3]; listed as CF-Penetratin): 1 to 2 µM | 37 °C - INTERNALIZED, WT (FLUOROMETRY) [3]: 22 ± 1.3 (n = 11) μM | ratio of total cell-associated to internalized peptide by fluorometry ([3]; fluorometry of lysates, cell line not given): ~100 folds | 4 °C - INTERNALIZED, GAG^deficient (FLUOROMETRY) [4]: 1.7 ± 0.8 (n = 3) μM | 4 °C - INTERNALIZED, GAG^deficient (FLUOROMETRY) ([4]; listed as CF-Penetratin): 1 to 2 µM | 37 °C - INTERNALIZED, GAG^deficient (FLUOROMETRY) [4]: 7.0 ± 0.5 (n = 4) μM | 4 °C - INTERNALIZED, SA^deficient (FLUOROMETRY) [5]: 1.0 ± 0.1 (n = 4) μM | 4 °C - INTERNALIZED, SA^deficient (FLUOROMETRY) ([5]; listed as CF-Penetratin): 1 to 2 µM | 37 °C - INTERNALIZED, SA^deficient (FLUOROMETRY) [5]: 33 ± 5.3 (n = 4) μM | difference between total cell-associated and internalized fluorescence signals by flow cytometry (CHO cells [10]): 1.25 to 2 folds
